Article PMC4620497 (Scientific Reports, 2015)
Like-named read-outs stand apart in the source and are kept apart here.

Legend:
[1] = target: T1, PLK2 (Homo sapiens, UniProt Q9NYY3); test: KINOMEscan panel screen; assay type: binding; conditions: read-out: Percent Control(%)
T1 construct: purchased DiscoveRx KINOMEscan (Ambit Biosciences)

[2] = target: T2, SNARK (Homo sapiens, UniProt Q9H093); test: KINOMEscan panel screen; assay type: binding; conditions: read-out: Percent Control(%)
T2 construct: purchased DiscoveRx KINOMEscan (Ambit Biosciences)

[3] = target: T3, RSK2(Kin.Dom.2-C-terminal) (Homo sapiens, UniProt P51812); test: KINOMEscan panel screen; assay type: binding; conditions: read-out: Percent Control(%)
T3 construct: RSK2(Kin.Dom.2-C-terminal); purchased DiscoveRx KINOMEscan (Ambit Biosciences)

[4] = target: T4, SIK (Homo sapiens, UniProt P57059); test: KINOMEscan panel screen; assay type: binding; conditions: read-out: Percent Control(%)
T4 construct: purchased DiscoveRx KINOMEscan (Ambit Biosciences)

[5] = test system: MV4-11 bone marrow transplant; test: MV4-11 bone marrow engraftment model; assay type: in vivo, NOD-SCID mice; conditions: for mean survival time (MST): vehicle 51 days
Protocol: Finally, the influence of SKLB-677 on survival time was examined using a bone marrow (BM) transplant model of MV4-11. In the vehicle control group, the mean survival time (MST) was 51 days, with all animals expired by day 58.
NOD-SCID mice were pretreated with cyclophosphamide by intraperitoneal injection of 150 mg/kg/d for 2 days. Following a 24-hour rest period, the mice were intravenously injected with 8 × 10^6 MV4-11 cells per mouse via the tail vein. From the day 21 after inoculation, SKLB-677 or vehicle was administered orally once a day for 30 days.
Supplementary Figure S9. NOD- SC ID mice were intravenousl y inject ed with 8×10^6 MV4-11 cells per mouse via the tail vein. Oral administration of S K LB -677 at 10 mg/kg/d was initiated on day 21 after the inoculati on. Mouse ( 3mice per group) thigh femurs were collected for immunohistochemical Ki67 anal ysis after 6 d a ys of […]
regression of bone marrow tumor. Scale bar, 100μm.
(1 picture or pasted object on this page, not shown here)

[6] = target: T5, MAP3K4 (Homo sapiens, UniProt Q9Y6R4); test: KINOMEscan panel screen; assay type: binding; conditions: read-out: Percent Control(%)
T5 construct: purchased DiscoveRx KINOMEscan (Ambit Biosciences)

[7] = target: T6, PKN2 (Homo sapiens, UniProt Q16513); test: KINOMEscan panel screen; assay type: binding; conditions: read-out: Percent Control(%)
T6 construct: purchased DiscoveRx KINOMEscan (Ambit Biosciences)

[8] = test system: normal PBMCs; test: CellTiterGlo viability assay, normal PBMCs; assay type: cell-based, human; conditions: 72 h
Excerpt: The patients’ information is listed in Supplementary Table S5. For comparison, three normal PB samples were also collected (sample #7, #8, #9). Peripheral blood mononuclear cells (PBMCs) were isolated from each sample in the following assays.
Methods used in this study were approved by the Ethics Committee of the West China Hospital. Informed consent for the use of human AML and normal peripheral blood (PB) samples for the present study was obtained from all patients according to the Declaration of Helsinki.
Effects of compounds on the PBMC viability were examined using CellTiterGlo (Promega) assays. […] The signal from the viable cells was assessed according to the manufacturer’s protocol.

[9] = target: T7, GCN2(Kin.Dom.2,S808G) (Homo sapiens, UniProt Q9P2K8, S808G); test: KINOMEscan panel screen; assay type: binding; conditions: read-out: Percent Control(%)
T7 construct: GCN2(Kin.Dom.2,S808G); purchased DiscoveRx KINOMEscan (Ambit Biosciences)

[10] = target: T8, HIPK3 (Homo sapiens, UniProt Q9H422); test: KINOMEscan panel screen; assay type: binding; conditions: read-out: Percent Control(%)
T8 construct: purchased DiscoveRx KINOMEscan (Ambit Biosciences)

[11] = target: T9, MST1R (Homo sapiens, UniProt Q04912); test: KINOMEscan panel screen; assay type: binding; conditions: read-out: Percent Control(%)
T9 construct: purchased DiscoveRx KINOMEscan (Ambit Biosciences)

[12] = test system: A2058; test: MTT cell viability assay; conditions: Homo sapiens, A2058, 72 h
[13] = Pharmacokinetic assessment in rats; assay type: in vivo, SD rats; conditions: rat, mean; for Tmax / half-life / AUC(0-t) / Cmax / t1/2: 10 mg/kg; for AUC(0-t): read-out: AUC(0-36h)
Protocol: Preliminary pharmacokinetic characteristics of SKLB-677 were assessed on rats with SKLB-677 at a dose of 10 mg/kg P.O. and I.V. administration. The key pharmacokinetic parameters calculated are summarized in Supplementary Table S6.
SD rats (6 per group) were orally treated or injected intravenously with 10 mg/kg SKLB-677, followed by the collection of blood from the jugular vein into heparinized tubes at the appropriate times. The plasma was isolated by centrifugation. The plasma concentrations of SKLB-677 were determined using liquid–liquid extraction followed by high-performance liquid chromatography (HPLC) with tandem mass spectrometric detection. Noncompartmental pharmacokinetic parameters (AUC, Tmax, Cmax, and t1⁄2) were obtained from the blood concentration time profiles using DAS software.
Supplementary Table S6. The pharmacokinetic characteristics of SKLB-677. […]
standard deviation. t1/2: Mean half-life associat ed with the terminal slope and standard deviation.C max: Mean peak plasma concentration and standard deviation.
Tmax: Mean time to reach max imum plasma concentration and standard dev iation. CL:
Mean bod y clearance and standard deviation. Vss: Mean volume of distribution at steady state and standard deviation. The statistical anal ysis of data was shown as mean values and SD v alues (n= 6) .

[14] = target: T10, ERK5 (Homo sapiens, UniProt Q13164); test: KINOMEscan panel screen; assay type: binding; conditions: read-out: Percent Control(%)
T10 construct: purchased DiscoveRx KINOMEscan (Ambit Biosciences)

[15] = target: T11, AMPK-alpha2 (Homo sapiens, UniProt P54646); test: KINOMEscan panel screen; assay type: binding; conditions: read-out: Percent Control(%)
T11 construct: purchased DiscoveRx KINOMEscan (Ambit Biosciences)

[16] = target: T12, SRPK3 (Homo sapiens, UniProt Q9UPE1); test: KINOMEscan panel screen; assay type: binding; conditions: read-out: Percent Control(%)
T12 construct: purchased DiscoveRx KINOMEscan (Ambit Biosciences)

[17] = target: T13, SBK1 (Homo sapiens, UniProt Q52WX2); test: KINOMEscan panel screen; assay type: binding; conditions: read-out: Percent Control(%)
T13 construct: purchased DiscoveRx KINOMEscan (Ambit Biosciences)

[18] = target: T14, RPS6KA4(Kin.Dom.2-C-terminal) (Homo sapiens, UniProt O75676); test: KINOMEscan panel screen; assay type: binding; conditions: read-out: Percent Control(%)
T14 construct: RPS6KA4(Kin.Dom.2-C-terminal); purchased DiscoveRx KINOMEscan (Ambit Biosciences)

[19] = target: T15, PAK6 (Homo sapiens, UniProt Q9NQU5); test: KINOMEscan panel screen; assay type: binding; conditions: read-out: Percent Control(%)
T15 construct: purchased DiscoveRx KINOMEscan (Ambit Biosciences)

[20] = test system: SU-DHL-6; test: MTT cell viability assay; conditions: Homo sapiens, SU-DHL-6, 72 h

T5 sequence (Q9Y6R4 whole entry): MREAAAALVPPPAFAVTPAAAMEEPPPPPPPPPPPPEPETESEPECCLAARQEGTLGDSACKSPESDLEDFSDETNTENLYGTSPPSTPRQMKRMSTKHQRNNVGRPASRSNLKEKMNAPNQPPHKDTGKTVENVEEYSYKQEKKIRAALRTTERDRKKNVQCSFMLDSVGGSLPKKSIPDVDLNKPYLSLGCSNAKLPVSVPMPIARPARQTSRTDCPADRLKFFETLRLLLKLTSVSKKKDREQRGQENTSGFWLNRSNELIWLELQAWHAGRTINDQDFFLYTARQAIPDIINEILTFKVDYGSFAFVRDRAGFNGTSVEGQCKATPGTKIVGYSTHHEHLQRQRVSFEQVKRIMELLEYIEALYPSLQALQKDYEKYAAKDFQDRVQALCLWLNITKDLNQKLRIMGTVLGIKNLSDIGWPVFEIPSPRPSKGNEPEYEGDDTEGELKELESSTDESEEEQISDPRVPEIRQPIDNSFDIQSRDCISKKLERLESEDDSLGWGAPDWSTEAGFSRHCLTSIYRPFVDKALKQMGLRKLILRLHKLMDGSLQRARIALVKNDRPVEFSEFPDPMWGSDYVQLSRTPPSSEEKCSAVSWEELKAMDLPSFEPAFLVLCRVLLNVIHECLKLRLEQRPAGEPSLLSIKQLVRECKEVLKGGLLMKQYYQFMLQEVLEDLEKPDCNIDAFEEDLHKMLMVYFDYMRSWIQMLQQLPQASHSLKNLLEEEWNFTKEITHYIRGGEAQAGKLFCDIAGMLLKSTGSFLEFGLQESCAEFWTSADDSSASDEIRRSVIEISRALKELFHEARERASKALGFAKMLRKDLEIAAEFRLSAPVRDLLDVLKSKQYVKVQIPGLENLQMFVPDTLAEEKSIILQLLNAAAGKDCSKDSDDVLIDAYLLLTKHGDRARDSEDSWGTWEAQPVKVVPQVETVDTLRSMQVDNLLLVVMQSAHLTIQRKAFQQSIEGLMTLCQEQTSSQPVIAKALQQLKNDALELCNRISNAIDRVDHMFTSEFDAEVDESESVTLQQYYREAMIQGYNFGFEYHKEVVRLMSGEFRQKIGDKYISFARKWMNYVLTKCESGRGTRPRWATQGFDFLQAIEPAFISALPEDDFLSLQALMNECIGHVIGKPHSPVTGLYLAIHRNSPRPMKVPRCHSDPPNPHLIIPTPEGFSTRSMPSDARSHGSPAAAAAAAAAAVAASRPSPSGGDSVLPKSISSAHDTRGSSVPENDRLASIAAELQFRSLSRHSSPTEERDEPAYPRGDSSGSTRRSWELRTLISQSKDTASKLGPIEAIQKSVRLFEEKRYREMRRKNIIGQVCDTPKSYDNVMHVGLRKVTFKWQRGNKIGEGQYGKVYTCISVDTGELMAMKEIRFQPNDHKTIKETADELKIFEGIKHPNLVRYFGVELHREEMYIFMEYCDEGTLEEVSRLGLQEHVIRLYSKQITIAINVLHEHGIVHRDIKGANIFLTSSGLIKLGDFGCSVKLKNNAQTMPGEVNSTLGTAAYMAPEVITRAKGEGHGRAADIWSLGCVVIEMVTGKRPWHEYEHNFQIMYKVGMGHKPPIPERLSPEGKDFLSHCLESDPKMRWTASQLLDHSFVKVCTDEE
T13 sequence (Q52WX2 whole entry): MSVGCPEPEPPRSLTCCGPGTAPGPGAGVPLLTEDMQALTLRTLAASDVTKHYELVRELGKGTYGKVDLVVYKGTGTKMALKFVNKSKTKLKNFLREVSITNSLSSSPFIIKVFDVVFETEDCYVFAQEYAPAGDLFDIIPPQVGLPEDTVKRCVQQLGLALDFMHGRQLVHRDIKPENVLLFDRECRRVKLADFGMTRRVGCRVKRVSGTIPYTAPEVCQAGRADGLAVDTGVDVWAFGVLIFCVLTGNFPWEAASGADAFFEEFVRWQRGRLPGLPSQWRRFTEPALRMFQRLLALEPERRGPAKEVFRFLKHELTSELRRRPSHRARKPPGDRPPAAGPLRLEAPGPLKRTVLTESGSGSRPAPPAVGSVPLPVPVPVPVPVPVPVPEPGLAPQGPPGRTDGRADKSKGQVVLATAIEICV
T8 sequence (Q9H422 whole entry): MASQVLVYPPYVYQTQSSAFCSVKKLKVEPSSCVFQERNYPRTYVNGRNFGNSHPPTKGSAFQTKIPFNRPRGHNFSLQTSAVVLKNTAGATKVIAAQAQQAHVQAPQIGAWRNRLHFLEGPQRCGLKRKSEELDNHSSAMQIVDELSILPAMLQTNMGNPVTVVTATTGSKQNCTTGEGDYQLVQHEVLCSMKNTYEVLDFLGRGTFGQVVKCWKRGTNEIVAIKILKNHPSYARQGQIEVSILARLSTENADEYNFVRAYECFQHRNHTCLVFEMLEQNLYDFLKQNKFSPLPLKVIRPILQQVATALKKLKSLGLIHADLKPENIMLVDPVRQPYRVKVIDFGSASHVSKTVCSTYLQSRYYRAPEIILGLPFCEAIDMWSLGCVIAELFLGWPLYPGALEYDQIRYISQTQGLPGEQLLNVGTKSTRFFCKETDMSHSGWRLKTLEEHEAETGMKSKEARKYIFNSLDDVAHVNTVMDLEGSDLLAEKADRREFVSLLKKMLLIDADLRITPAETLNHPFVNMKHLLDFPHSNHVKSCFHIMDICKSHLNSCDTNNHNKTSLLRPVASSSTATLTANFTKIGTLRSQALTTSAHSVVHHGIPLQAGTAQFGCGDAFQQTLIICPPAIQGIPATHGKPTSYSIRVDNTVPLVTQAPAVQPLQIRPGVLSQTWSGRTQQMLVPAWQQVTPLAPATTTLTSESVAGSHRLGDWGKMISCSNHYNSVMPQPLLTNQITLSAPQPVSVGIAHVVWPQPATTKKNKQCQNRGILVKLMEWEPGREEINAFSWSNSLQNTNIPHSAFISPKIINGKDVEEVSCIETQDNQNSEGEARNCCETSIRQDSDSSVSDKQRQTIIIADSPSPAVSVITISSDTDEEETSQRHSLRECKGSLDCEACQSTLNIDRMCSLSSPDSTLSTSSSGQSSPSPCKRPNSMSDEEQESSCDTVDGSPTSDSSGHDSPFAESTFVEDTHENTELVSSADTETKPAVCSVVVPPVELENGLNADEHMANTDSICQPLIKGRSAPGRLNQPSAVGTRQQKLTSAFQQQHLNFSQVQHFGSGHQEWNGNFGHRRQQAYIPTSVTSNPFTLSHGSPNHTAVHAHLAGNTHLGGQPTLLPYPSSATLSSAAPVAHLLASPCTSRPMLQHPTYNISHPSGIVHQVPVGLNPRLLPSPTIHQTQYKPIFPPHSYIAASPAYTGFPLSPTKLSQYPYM
T6 sequence (Q16513 whole entry): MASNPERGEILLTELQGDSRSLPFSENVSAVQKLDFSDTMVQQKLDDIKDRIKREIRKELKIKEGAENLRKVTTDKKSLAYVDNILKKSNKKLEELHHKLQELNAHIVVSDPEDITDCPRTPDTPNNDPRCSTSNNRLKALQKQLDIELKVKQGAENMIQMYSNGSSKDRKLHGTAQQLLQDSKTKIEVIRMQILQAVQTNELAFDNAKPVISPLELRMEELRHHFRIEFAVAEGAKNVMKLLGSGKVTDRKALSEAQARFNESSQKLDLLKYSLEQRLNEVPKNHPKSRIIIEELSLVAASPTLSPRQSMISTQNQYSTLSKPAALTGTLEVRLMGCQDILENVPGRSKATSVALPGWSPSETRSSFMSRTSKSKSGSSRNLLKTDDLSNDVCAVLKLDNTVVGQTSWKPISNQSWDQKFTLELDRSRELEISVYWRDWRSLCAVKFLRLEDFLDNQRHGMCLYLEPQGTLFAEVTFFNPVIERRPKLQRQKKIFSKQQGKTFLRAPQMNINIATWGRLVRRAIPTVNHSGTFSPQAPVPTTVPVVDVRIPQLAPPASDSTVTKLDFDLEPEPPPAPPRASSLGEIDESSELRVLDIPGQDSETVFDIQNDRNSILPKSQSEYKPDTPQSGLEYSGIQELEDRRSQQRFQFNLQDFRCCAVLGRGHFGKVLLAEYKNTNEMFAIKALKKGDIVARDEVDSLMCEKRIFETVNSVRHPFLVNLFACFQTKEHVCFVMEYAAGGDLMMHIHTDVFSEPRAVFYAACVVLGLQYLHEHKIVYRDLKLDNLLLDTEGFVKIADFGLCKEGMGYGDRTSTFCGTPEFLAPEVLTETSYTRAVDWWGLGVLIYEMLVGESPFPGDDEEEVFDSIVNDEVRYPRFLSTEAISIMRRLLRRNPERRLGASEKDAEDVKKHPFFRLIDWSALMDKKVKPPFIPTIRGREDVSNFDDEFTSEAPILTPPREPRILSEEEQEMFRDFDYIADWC
T10 sequence (Q13164 whole entry): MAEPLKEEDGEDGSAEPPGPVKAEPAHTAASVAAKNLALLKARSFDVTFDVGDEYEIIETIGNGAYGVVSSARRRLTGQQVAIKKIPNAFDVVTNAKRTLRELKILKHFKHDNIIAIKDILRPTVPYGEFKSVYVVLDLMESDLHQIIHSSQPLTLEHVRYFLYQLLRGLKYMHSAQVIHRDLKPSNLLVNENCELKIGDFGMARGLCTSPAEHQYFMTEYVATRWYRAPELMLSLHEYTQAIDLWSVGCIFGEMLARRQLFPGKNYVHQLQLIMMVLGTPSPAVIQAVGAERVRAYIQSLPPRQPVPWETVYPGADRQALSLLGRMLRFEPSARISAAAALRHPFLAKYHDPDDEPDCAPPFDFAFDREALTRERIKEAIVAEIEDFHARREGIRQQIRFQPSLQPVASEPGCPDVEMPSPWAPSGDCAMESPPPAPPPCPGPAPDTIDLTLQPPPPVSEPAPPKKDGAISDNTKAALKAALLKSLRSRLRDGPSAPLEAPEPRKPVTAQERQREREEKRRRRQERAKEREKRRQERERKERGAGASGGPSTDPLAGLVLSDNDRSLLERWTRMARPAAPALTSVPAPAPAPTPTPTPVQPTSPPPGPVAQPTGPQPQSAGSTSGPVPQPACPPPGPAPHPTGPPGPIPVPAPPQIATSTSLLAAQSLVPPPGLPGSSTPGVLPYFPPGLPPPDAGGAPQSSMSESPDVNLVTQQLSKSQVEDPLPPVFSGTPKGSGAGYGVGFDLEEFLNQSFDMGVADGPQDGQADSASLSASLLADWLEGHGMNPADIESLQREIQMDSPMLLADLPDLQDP

`CC(C)(C)c1cc(NC(=O)Nc2ccc(Oc3ncnc4[nH]ncc34)c(F)c2)no1` [SKLB-677, 1-(4-(1H-pyrazolo[3,4-d]pyrimidin-4-yloxy)-3-fluorophenyl)-3-(5-tert-butylisoxazol-3-yl)urea] showed a remaining binding at 10 µM [1] of 100%, a remaining binding at 10 µM [2] of 66% and a remaining binding at 10 µM [3] of 100%. The remaining binding at 10 µM [4] was 97%, the “mean survival time (MST)” value ([5]; 3 mg/kg/day orally for 30 days) was 66 days and the “number of Ki67-positive cells in femur BM” value ([5]; 10 mg/kg/d for 6 days) was “obviously decreased”. The “mean survival time (MST)” value ([5]; 10 mg/kg/day orally for 30 days) was 78.5 days, the “mean survival time (MST)” value ([5]; 30 mg/kg/day orally for 30 days) was 85.5 days and the remaining binding at 10 µM [6] was 69%. The remaining binding at 10 µM [7] was 100%, the IC50 ([8]; Homo sapiens, PBMC, sample #7, normal PBMCs) was greater than 10 µM and the IC50 ([8]; sample #8, normal PBMCs) was greater than 10 µM. For the same molecule, the IC50 ([8]; sample #9, normal PBMCs) was greater than 10 µM, the remaining binding at 10 µM [9] was 20% and the remaining binding at 10 µM [10] was 1.2%. The remaining binding at 10 µM [11] was 42%, the IC50 [12] was greater than 10 µM and the clearance ([13]; SD, plasma, iv, 10 mg/kg I.V.) was 0.617 mL/min/kg. It also gave a Vd ([13]; SD, plasma, iv, 10 mg/kg I.V., read-out: Vss (apparent volume of distribution, Vd)) of 0.271 L/kg, a Tmax ([13]; SD, plasma, iv, 10 mg/kg I.V.) of 0.033 h and a half-life ([13]; SD, plasma, iv, 10 mg/kg I.V.) of 5.09 h. The AUC(0-t) ([13]; SD, plasma, iv, 10 mg/kg I.V.) was 272 µg·h/mL, the Cmax ([13]; SD, plasma, iv, 10 mg/kg I.V., read-out: Cmax) was 58200 ng/mL and the Tmax ([13]; SD, plasma, po, 10 mg/kg P.O.) was 3 h. For the same molecule, the half-life ([13]; SD, plasma, po, 10 mg/kg P.O.) was 5.43 h, the AUC(0-t) ([13]; SD, plasma, po, 10 mg/kg P.O.) was 176 µg·h/mL and the Cmax ([13]; SD, plasma, po, 10 mg/kg P.O., read-out: Cmax) was 12300 ng/mL. The t1/2 ([13]; 10 mg/kg I.V.) was 5.1 h, the CL ([13]; 10 mg/kg P.O.) was 0.967 mL/min/kg and the Vss ([13]; 10 mg/kg P.O.) was 0.446 L/kg. The Cmax ([13]; 10 mg/kg P.O.) was 12280 ng/mL, the t1/2 ([13]; 10 mg/kg P.O.) was 5.4 h and the remaining binding at 10 µM [14] was 70%. For the same molecule, the remaining binding at 10 µM [15] was 7.8%, the remaining binding at 10 µM [16] was 71% and the remaining binding at 10 µM [17] was 80%. It also gave a remaining binding at 10 µM [18] of 78%, a remaining binding at 10 µM [19] of 90% and an IC50 [20] of 7.78 µM.
